Here are results for 16 molecules from patent EP1228058B1, “BENZOPYRANYL GUANIDINE DERIVATIVES, PROCESS FOR PREPARATION THEREOF, AND PHARMACEUTICAL COMPOSITIONS CONTAINING THEM” (Dongbu Hannong Chemical Co., Ltd., priority 1999, dated 2001).

Structures are written as SMILES.

For one data set, the system named is rat aorta. The data set is described as follows: Vasodilation effects on isolated blood vessels of rats (methoxamine-constricted aortic rings). It counts as cell-based. The following applies: isolated rat aorta constricted with methoxamine (3 uM); read-out: Vasodilation Activity (in Vitro, rat aorta) (IC50). An excerpt: Male Sprague-Dawly rats (350-450 g, obtained from the Experimental Animal Team of the Korea Research Institute of Chemical Technology) were knocked unconscious by hitting the occipital region, sacrificed by cervical dislocation, and underwent thoracotomy. After being quickly removed, the thoracic aorta was deprived of the adipose tissue and cut into aortic rings of 3 mm width. The aorta was lightly rubbed with a modified Krebs Henseleit buffer (Physiological Salt Solution, PSS) soaked cotton club to remove the inner epithelial layer therefrom. While being suspended in an organ bath containing a physiological buffer, the vascular tissue was allowed to equilibrate under a resting tension of 2 g and then, stand for 1 hour at 37 °C for stabilization with a supply of a carbogen consisting of 95% O2-5% CO2.
Thereafter, the vascular tissue was constricted with 10^-5 M phenylephrine and washed several times with PSS and this procedure was repeated again to ensure the stable reacivity of vascular smooth muscle to repetitive constriction/dilatation.
In addition, 3x10^-6 M methoxamine was used to induce an intensive constriction in the vascular smooth muscle. When the vasoconstriction induced by the methoxamine reached and maintained a maximum, test compounds and controls were cumulatively added to the organ baths in concentrations of 1, 3, 10 and 30 uM so as to induce vasodilatation. As for the controls, they were Cromakalim and BMS-180448 (the compounds of the chemical formula 2), both known to be the first generation KATP activator with potent vasodilatation and cardioprotection effects.
Following the addition of the drugs, the change in the maximal constriction induced by methoxamine was calculated to plot a concentration-dilation response curve. Through a linear regression analysis, IC50, the drug concentration at which the vascular tissue is 50% dilated, was obtained for each drug.

Another data set concerns HUVEC. The data set is described as follows: Inhibition of HUVEC tube formation on Matrigel. It counts as cell-based, Human. Also noted: key: -: no effect; +/-: week effect; +: moderate effect; ++: strong effect. How it is done:
HUVEC (Human umbilical vein endothelial cells, ATCC CRL-1730) were cultured, and tubulogenesis was induced in vascular endothelial cells by plating them onto the surface of Matrigel for several hours. The effects on tube formation of the test compounds were compared with the vehicle treated controls, then confirmed their in vitro anti-angiogenic effect indirectly.

Data set [1] is described as follows: Acute oral toxicity test in rats. The following applies: rat, in vivo, single oral dose in 0.5% methyl cellulose, read-out: lethal dose (LD50) for oral administration. How it is done: In this test six-week old SPF SD rats were used with two rats assigned to each group. The compounds of examples 1, 2, 3, 5, 7, 8, 9, 10, 13, 14, 15, 19, 22, 23, 24, 25, 26, 28, 29, 30, 31, 32, 33, 34, 35, 36, 37, 38, 39, 40, 41, 44, 46, 47, 48, 49, 51, 52, 57, 58, 60, 62, 64, 67, 68, 69, 71 and 72 were suspended in 0.5% methyl cellulose, respectively, and administered orally at a single dose of 1 g/kg using a ball-tipped needle. The dosing volume was 10 ml/kg. […] All survivors at the end of the observation period underwent laparotomy under ether anesthesia and the blood samples were taken from the abdominal aorta for hematological tests and biochemical analysis. After sacrificing the animals, autopsy was performed for macroscopic observation of the organs and tissues. Tissue samples of vital organs from macroscopic legion were removed and fixed in 10% neutral buffered formalin solution, then processed by standard procedures for histopathology and examined under light microscope. There were no significant changes in clinical symptoms, body weight and mortalities. Also in hematology, serum chemistry parameters and macroscopic observation, no drug-related changes were observed.

The IC50 is the concentration that inhibits the measured activity by half. For the molecule `CC1(C)Oc2ccc(C#N)cc2C(N2CCCC2=O)C1O` (stereo not drawn) [Cromakalim, reference compound], the IC50 in the data set on rat aorta is 0.067 µM. As to `COC(OC)[C@]1(C)Oc2ccc([N+](=O)[O-])cc2[C@@H](NC(=NC#N)Nc2ccc(Cl)cc2)[C@@H]1O` [Example 2, (2R, 3S, 4R)-N''-cyano-N-(6-nitro-3,4-dihydro-3-hydroxy-2-methyl-2-dimethoxymethyl-2H-benzopyran-4-yl)-N'-(4-chlorophenyl)guanidine], the “Inhibitory Effects on Tube Formation” value is given as “+” with HUVEC (10 uM) and “++” with HUVEC (100 uM). Moreover, in data set [1], the LD50 was greater than 1000 mg/kg. With `COC(OC)[C@@]1(C)Oc2ccc([N+](=O)[O-])cc2[C@H](NC(=NC#N)Nc2ccc(Cl)cc2)[C@H]1O` [Example 10, (2S, 3R, 4S)-N''-cyano-N-(6-nitro-3,4-dihydro-3-hydroxy-2-methyl-2-dimethoxymethyl-2H-benzopyran-4-yl)-N'-(4-chlorophenyl)guanidine], the figures for the “Inhibitory Effects on Tube Formation” value in the data set on HUVEC (10 uM) and in the data set on HUVEC (100 uM) were “+” and “++”, respectively. Besides, the LD50 in data set [1] was greater than 1000 mg/kg.

Consider `COC(OC)[C@@]1(C)Oc2ccc([N+](=O)[O-])cc2[C@@H](NC(=NC#N)Nc2cccc(C(F)(F)F)c2)[C@@H]1O` [Example 15, (2S, 3S, 4R)-N''-cyano-N-(6-nitro-3,4-dihydro-3-hydroxy-2-methyl-2-dimethoxymethyl-2H-benzopyran-4-yl)-N'-(3-trifluoromethylphenyl)guanidine], for which the LD50 in data set [1] is greater than 1000 mg/kg. Further, the IC50 in the data set with rat aorta turned out to be 14.1 µM. With `COc1ccc(NC(=NC#N)N[C@H]2c3cc([N+](=O)[O-])ccc3O[C@](C)(C(OC)OC)[C@@H]2O)cc1` [Example 16, (2S, 3R, 4S)-N''-cyano-N-(6-nitro-3,4-dihydro-3-hydroxy-2-methyl-2-dimethoxymethyl-2H-benzopyran-9-yl)-N'-(4-methoxyphenyl) guanidine], the “Inhibitory Effects on Tube Formation” value in the data set on HUVEC (10 uM) and with HUVEC (100 uM) was “+/-” in each case. With `COC(OC)[C@@]1(C)Oc2ccc([N+](=O)[O-])cc2[C@@H](NC(=NC#N)NCc2cccc([N+](=O)[O-])c2)[C@@H]1O` [Example 52, (2S, 3S, 4R)-N''-cyano-N-(6-nitro-3,4-dihydro-3-hydroxy-2-methyl-2-dimethoxymethyl-2H-benzopyran-4-yl)-N'-(3-nitrobenzyl)guanidine], the “Inhibitory Effects on Tube Formation” value with HUVEC (10 uM) is given as “+/-”; in the data set on HUVEC (100 uM), “++”. The LD50 in data set [1] is greater than 1000 mg/kg. Take `COC(OC)[C@@]1(C)Oc2ccc(N)cc2[C@H](/N=C(\NC#N)NCc2ccccc2)[C@H]1O` [Example 57, (2S, 3R, 4S)-N''-cyano-N-(6-amino-3,4-dihydro-3-hydroxy-2-methyl-2-dimethoxymethyl-2H-benzopyran-4-yl)-N'-benzylguanidine]: in data set [1], the LD50 was greater than 1000 mg/kg. On to `COC(OC)[C@]1(C)Oc2ccc(N)cc2[C@H](NC(=NC#N)NCc2ccccc2)[C@H]1O` [Example 58, (2R, 3R, 4S)-N''-cyano-N-(6-amino-3,4-dihydro-3-hydroxy-2-methyl-2-dimethoxymethyl-2H-benzopyran-4-yl)-N'-benzylguanidine], for which, in data set [1], the LD50 was greater than 1000 mg/kg. For `C[C@]1(C2OCCO2)Oc2ccc([N+](=O)[O-])cc2[C@@H](NC(=NC#N)NCc2ccccc2)[C@@H]1O` [Example 60, (2S, 3S, 4R)-N''-cyano-N-(6-nitro-3,4-dihydro-3-hydroxy-2-methyl-2-([1,3]dioxolan-2-yl)-2H-benzopyran-4-yl)-N'-benzylguanidine], in data set [1], the LD50 was greater than 1000 mg/kg.

Regarding `C[C@]1(C2OCCCO2)Oc2ccc([N+](=O)[O-])cc2[C@@H](NC(=NC#N)NCc2ccccc2)[C@@H]1O` [Example 62, (2S, 3S, 4R) -N''-cyano-N-(6-nitro-3,4-dihydro-3-hydroxy-2-methyl-2-([1,3]dioxan-2-yl)-2H-benzopyran-4-yl)-N'-benzylguanidine], in data set [1], the LD50 was greater than 1000 mg/kg. On the same count and under the same terms, for `CC1(C)COC([C@@]2(C)Oc3ccc([N+](=O)[O-])cc3[C@@H](NC(=NC#N)NCc3ccccc3)[C@@H]2O)OC1` [Example 64, (2S, 3S, 4R)-N''-cyano-N-(6-nitro-3,9-dihydro-3-hydroxy-2-methyl-2-([1,3]-5,5-dimethyldioxan-2-yl)-2H-benzopyran-4-yl)-N'-benzyl guanidine] the value was greater than 1000 mg/kg; for `CCOC(OCC)[C@@]1(C)Oc2ccc(N)cc2[C@@H](NC(=NC#N)NCc2ccccc2)[C@@H]1O` [Example 67, (2S, 3S, 4R)-N''-cyano-N-(6-amino-3,4-dihydro-3-hydroxy-2-methyl-2-diethoxymethyl-2H-benzopyran-4-yl)-N'-benzylguanidine], greater than 1000 mg/kg. Regarding `COC(=O)c1ccc2c(c1)[C@@H](NC(=NC#N)NCc1ccccc1)[C@H](O)[C@@](C)(C(OC)OC)O2` [Example 68, (2S, 3S, 4R)-N''-cyano-N-(6-methoxycarbonyl-3,4-dihydro-3-hydroxy-2-methyl-2-dimthoxymethyl-2H-benzopyran-4-yl)-N'-benzylguanidine], the LD50 in data set [1] was greater than 1000 mg/kg. With `COC(=O)c1ccc2c(c1)[C@@H](NC(=NC#N)NCc1ccccc1)[C@H](O)[C@](C)(C(OC)OC)O2` [Example 69, (2R, 3S, 4R)-N''-cyano-N (6-methoxycarbonyl-3,4-dihydro-3-hydroxy-2-methyl-2-dimthoxymethyl-2H-benzopyran-4-yl)-N'-benzylguanidine], the LD50 in data set [1] was greater than 1000 mg/kg. `COC(OC)[C@@]1(C)Oc2c(N)cccc2[C@@H](NC(=NC#N)NCc2ccccc2)[C@@H]1O` [Example 71, (2S, 3S, 4R)-N''-cyano-N-(8-amino-3,4-dihydro-3-hydroxy-2-methyl-2-dimthoxymethyl-2H-benzopyran-4-yl)-N'-benzylguanidine]: the LD50 in data set [1] was greater than 1000 mg/kg. Take `COC(OC)[C@]1(C)Oc2c(N)cccc2[C@@H](NC(=NC#N)NCc2ccccc2)[C@@H]1O` [Example 72, (2R, 3S, 4R)-N''-cyano-N-(8-amino-3,4-dihydro-3-hydroxy-2-methyl-2-dimthoxymethyl-2H-benzopyran-4-yl)-N'-benzylguanidine]: the LD50 in data set [1] is greater than 1000 mg/kg.
